Data reported in publication PMC9916969 (International Journal of Molecular Sciences, 2023).
Where “and” joins values, the source holds several entries; their conditions need not be identical. Identical values can stand only once. Like-named read-outs stand apart in the source and are kept apart here.

Experiments:
[1] = tested on: porcine liver CES; experiment: In vitro CES inhibition (4-NPA substrate); assay type: biochemical; details: compound 20 µM, n.a. = not active
Source text: (§1) Assessment of the esterase profile of new potential anti-AD molecules enables the estimation of both the primary pharmacological effects of the tested compounds—their inhibition of AChE and BChE—and their possible unwanted side effect—inhibition of CES, which hydrolyzes numerous ester-containing drugs. For the esterase profile evaluation, human erythrocyte AChE, equine serum BChE, and porcine liver CES were used. These sources of BChE and CES were employed because of their relatively low cost, high sequence identity to human enzymes, and the exploratory character of this work.
(§2) Chromophore absorbances were measured with a FLUOStar Optima microplate reader (BMG Labtech, Ortenberg, Germany). […] Initially, we used a single concentration of 20 µM for all compounds.

[2] = target: T1, EeAChE PAS (Electrophorus electricus, UniProt O42275); assay type: binding; details: compound 20 µM; EeAChE 7 µM; propidium iodide 8 µM
T1 construct: The enzyme was electric eel AChE (EeAChE type VI-S, lyophilized powder, Sigma-Aldrich); purchased Sigma-Aldrich type VI-S; host or cells: electric eel (tissue-derived)
Source text: This method is widely used as a screening approach to assess the potential ability of compounds to block AChE-induced β-amyloid aggregation. This is because when the compounds bind to the AChE PAS, they prevent the binding of β-amyloid, thereby inhibiting its aggregation.
The enzyme was electric eel AChE (EeAChE type VI-S, lyophilized powder, Sigma-Aldrich). We selected this source of AChE for consistency with our other reports and because of the purity, specific activity, and lower cost compared to human AChE.
Propidium iodide (final concentration 8 μM) was then added for a further 15 min incubation, and the fluorescence spectrum was taken (530 nm excitation and 600 nm emission) using a FLUOStar Optima microplate reader. The same concentration of propidium iodide in the Tris buffer was used as the blank. Triplicate determinations were recorded and the results were calculated via the following equation:% Displacement = 100 − (IFAChE+ Propidium + inhibitor/IFAChE + Propidium) × 100, where IFAChE + Propidium = fluorescence intensity of propidium iodide associated with AChE in the absence of the test compound (taken as 100%), and IFAChE + Propidium + inhibitor = fluorescence intensity of propidium iodide associated with AChE in the presence of the test compound.

[3] = target: β-amyloid (1–42) (Aβ42) (Homo sapiens, UniProt P05067); experiment: Inhibition of Aβ42 self-aggregation (thioflavin T); assay type: biochemical; details: for inhibition at 100 µM: read-out: Inhibition of Aβ42 Self-Aggregation
Experimental: The inhibitory activity of tested hybrids against the self-aggregation of Aβ42 was determined in vitro using the thioflavin T (ThT) fluorimetric assay. According to [84], the ThT test is ideal for preliminary screening of inhibitors of Aβ42 self-aggregation, as it enables the quantitative testing of large numbers of compounds within a relatively short time.
The influence of the inhibitory effect of the test compounds toward Aβ42 self-aggregation was determined using the thioflavin T (ThT) fluorescence method with minor modifications. This assay is based on a specific interaction between the fluorescent dye thioflavin T that binds to the β-sheets of assembled amyloid fibrils leading to a significant increase in fluorescence signal. Therefore, the decrease in ThT fluorescence correlates with the ability of the studied compounds to inhibit the formation of amyloid aggregates.
One mg of lyophilized HFIP-pretreated Aβ42 from BACHEM (Bubendorf, Switzerland) was dissolved in DMSO to obtain a stable initial solution ([Aβ42] = 500 μM); then it was aliquoted and stored at −20 °C.
For the measurement of Aβ42 self-aggregation and amyloid fibril inhibition studies by the tested compounds, aliquots of 500 μM Aβ42 stock solution were diluted in 215 mM Na-phosphate buffer pH = 8.0 to a final concentration of 50 μM Aβ42. Then the samples were incubated for 24 h at 37 °C without stirring in the absence (base level of Aβ42 self-aggregation, control) or presence of the test compounds. Myricetin and propidium iodide were used as reference compounds (positive controls). All compounds were used in a concentration of 100 µM. To quantify Aβ42 fibril formation, after incubation, 5 μM ThT in 50 mM glycine-NaOH buffer pH 8.5 was added to the solutions to a final concentration of 4 μM ThT and the fluorescence was measured at 440 nm (excitation) and 485 nm (emission). Analyses were performed with a FLUOStar Optima microplate reader (LabTech, Ortenberg, Germany). The blanks consisted of 215 mM Na-phosphate buffer, pH = 8.0, 20% (v/v) DMSO or test compounds, respectively. Each assay was run in triplicate.

[4] = ABTS radical cation scavenging assay; set-up: key to ABTS^•+ Scavenging Activity, TEAC: TEAC: ratio of compound slope to Trolox slope (Trolox equivalents); details: 1 h incubation; for IC50: 50% reduction of ABTS radical cation; for ABTS^•+ Scavenging Activity, TEAC: Trolox equivalent, n.a. = not active
Experimental: In the ABTS assay, the dark-green ABTS cation-radical (ABTS^•+) is quenched by interaction with AOs. The consequent decrease in absorbance is followed spectrophotometrically per the previously described method.
Radical scavenging activity of the compounds was assessed using the ABTS radical cation (ABTS^•+) decolorization assay with some modifications. ABTS (2,2′-azinobis-(3-ethylbenzothiazoline-6-sulfonic acid) was purchased from Tokyo Chemical Industry Co., Ltd. (Tokyo, Japan); potassium persulfate (dipotassium peroxodisulfate), Trolox (6-hydroxy-2,5,7,8-tetramethylchroman-2-carboxylic acid), and HPLC-grade ethanol and DMSO were obtained from Sigma-Aldrich (Saint Louis, MO, USA). Aqueous solutions were prepared using deionized water. All tested compounds were dissolved in DMSO.
The solution of cation radical ABTS^•+ was produced by incubation of an aqueous solution of 7 mM ABTS and 2.45 mM potassium persulfate solution in equal quantities for 12–16 h at room temperature in the dark. Radical scavenging capacity of the compounds was analyzed by mixing 10 μL of compound with 240 μL of ABTS^•+ working solution in ethanol (100 μM final concentration). The reaction was monitored for an hour at 30 °C with an interval of 10 min. Data are given for 1 h of incubation of compounds with ABTS^•+. The reduction in absorbance was measured spectrophotometrically at 734 nm using an xMark microplate UV/VIS spectrophotometer (Bio-Rad, Hercules, CA, USA). Ethanol blanks were run in each assay. Values were obtained from five replicates of each sample and three independent experiments.
The standard AO Trolox was used as a reference compound. AO capacity as Trolox equivalent (TEAC) values was determined as the ratio between the slopes obtained from the linear correlation of the ABTS radical absorbance with the concentrations of tested compounds and Trolox. Ascorbic acid was used as a positive control. […]. The compounds were tested in the concentration range of 0.5–100 µM.

[5] = FRAP assay; details: Trolox equivalents; 60 min, 37 °C; n.a. = not active
Experimental: The Ferric Reducing Antioxidant Power (FRAP) test involves reduction of the ferric 2,4,6-tripyridyl-s-triazine complex [Fe(TPTZ)2]^3+ to an intense-blue ferrous complex [Fe(TPTZ)2]^2+ [92], as previously reported. Results are given as Trolox Equivalents (TE).
The FRAP (ferric reducing antioxidant power) assay proposed by Benzie and Strain [92] was modified to be performed in 96-well microplates as described in detail in [53]. The FRAP reagent contained 2.5 mL of 10 mM TPTZ (2,4,6-tris(2-pyridyl)-s-triazine, Sigma-Aldrich) solution in 40 mM HCl, 2.5 mL of 20 mM FeCl3 (Sigma-Aldrich) in distilled water and 25 mL of 0.3 M acetate buffer (pH 3.6). Aliquots of 10 µL of the test compound dissolved in DMSO (0.5 mM) were placed in quadruplicate. Absorbance was measured at a wavelength of 593 nm after 60 min incubation at 37 °C. In each case, Trolox was used as a reference compound to obtain the standard curve. The AO activity was calculated with respect to the activity of Trolox and expressed as Trolox equivalents (TE)—the values calculated as the ratio of the concentrations of Trolox and the test compound resulting in the same effect on ferric reducing activity.

[6] = target: T2, equine serum BChE (Equus caballus, UniProt P81908); experiment: biochemical; details: mean ± SEM, n = 3, read-out: Inhibitory activity against BChE, IC50
T2 construct: human erythrocyte AChE, equine serum BChE, and porcine liver CES were used; purchased Sigma-Aldrich; host or cells: equine serum (tissue-derived)
Source text: as §1, §2

[7] = target: T3, human erythrocyte AChE (Homo sapiens, UniProt P22303); experiment: biochemical; details: mean ± SEM, n = 3, read-out: Inhibitory activity against AChE, IC50
T3 construct: human erythrocyte AChE, equine serum BChE, and porcine liver CES were used; purchased Sigma-Aldrich; host or cells: human erythrocytes (tissue-derived)
Source text: as §1, §2

[8] = Aβ42 50 µM, compound 100 µM, 24 h, 37 °C, thioflavin T

T3 sequence (P22303 32-617 isoform P22303-2 limits assumed): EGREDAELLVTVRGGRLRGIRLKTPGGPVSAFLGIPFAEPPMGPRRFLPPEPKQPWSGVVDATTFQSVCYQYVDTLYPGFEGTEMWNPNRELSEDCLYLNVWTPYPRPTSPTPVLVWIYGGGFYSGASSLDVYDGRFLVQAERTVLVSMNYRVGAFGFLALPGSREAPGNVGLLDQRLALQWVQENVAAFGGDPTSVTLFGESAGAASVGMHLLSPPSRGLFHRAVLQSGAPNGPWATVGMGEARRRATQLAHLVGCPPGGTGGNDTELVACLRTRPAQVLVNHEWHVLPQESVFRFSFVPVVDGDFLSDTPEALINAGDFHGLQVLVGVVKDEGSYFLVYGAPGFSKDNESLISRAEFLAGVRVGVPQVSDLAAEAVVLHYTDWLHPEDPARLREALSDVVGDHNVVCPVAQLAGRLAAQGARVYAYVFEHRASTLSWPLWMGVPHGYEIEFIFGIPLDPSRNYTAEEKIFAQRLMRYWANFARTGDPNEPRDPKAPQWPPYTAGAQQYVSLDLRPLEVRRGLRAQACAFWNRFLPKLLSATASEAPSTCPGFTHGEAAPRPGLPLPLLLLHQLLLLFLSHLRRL
T2 sequence (P81908 whole entry): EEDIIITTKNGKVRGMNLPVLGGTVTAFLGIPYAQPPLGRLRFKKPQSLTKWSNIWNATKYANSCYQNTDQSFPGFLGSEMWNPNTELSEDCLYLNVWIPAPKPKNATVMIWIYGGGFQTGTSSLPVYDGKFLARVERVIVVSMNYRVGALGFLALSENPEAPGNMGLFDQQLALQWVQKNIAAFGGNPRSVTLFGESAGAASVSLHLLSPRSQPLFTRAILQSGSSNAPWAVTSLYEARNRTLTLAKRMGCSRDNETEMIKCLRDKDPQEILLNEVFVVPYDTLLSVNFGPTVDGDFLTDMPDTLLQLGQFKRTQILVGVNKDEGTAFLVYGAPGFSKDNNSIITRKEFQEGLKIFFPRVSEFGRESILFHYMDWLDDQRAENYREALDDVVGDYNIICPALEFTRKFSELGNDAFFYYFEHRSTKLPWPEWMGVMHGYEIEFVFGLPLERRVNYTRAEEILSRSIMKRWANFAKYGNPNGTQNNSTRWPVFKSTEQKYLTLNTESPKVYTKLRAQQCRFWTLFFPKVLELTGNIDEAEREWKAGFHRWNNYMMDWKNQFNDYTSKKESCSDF
Chain of β-amyloid (1–42) (Aβ42) (P05067 672-713 limits assumed): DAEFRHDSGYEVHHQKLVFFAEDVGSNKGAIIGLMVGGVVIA
T1 sequence (O42275 24-633): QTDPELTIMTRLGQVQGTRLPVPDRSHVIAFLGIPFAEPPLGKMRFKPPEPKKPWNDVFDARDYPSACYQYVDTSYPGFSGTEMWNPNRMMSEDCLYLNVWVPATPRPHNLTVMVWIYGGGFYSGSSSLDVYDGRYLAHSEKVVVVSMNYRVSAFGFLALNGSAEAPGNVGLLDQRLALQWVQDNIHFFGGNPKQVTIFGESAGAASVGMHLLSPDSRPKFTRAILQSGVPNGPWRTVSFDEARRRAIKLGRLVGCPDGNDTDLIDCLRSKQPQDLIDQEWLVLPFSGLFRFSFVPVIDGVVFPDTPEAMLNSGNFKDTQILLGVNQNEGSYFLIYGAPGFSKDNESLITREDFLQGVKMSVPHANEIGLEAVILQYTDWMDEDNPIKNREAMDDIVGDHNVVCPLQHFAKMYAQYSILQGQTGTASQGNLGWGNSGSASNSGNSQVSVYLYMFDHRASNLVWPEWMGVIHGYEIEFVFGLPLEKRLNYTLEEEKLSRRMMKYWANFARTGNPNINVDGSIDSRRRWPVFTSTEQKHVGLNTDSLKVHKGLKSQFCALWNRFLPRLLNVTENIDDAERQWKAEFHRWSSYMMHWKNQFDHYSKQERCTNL

SMILES	Inhibitory activity against CES, inhibition at 20 µM [1] [%]	Propidium Displacement from EeAChE PAS [2] [%]	inhibition at 100 µM [3, 8] [%]	IC50 [4] [nM]	ABTS^•+ Scavenging Activity, TEAC [4]	FRAP, TE [5]	IC50 [6] [nM]	inhibition at 100 µM [3] [%]	IC50 [7] [nM]	Inhibition of Aβ42 Self-Aggregation [3, 8] [%]
O=C(NCCCCNc1c2c(nc3ccccc13)CCCC2)c1ccccc1O [5a]	1.6 ± 1.1	11.8 ± 0.9	20.7 ± 1.6	25300 ± 1100	0.73 ± 0.04	0.02	–	–	–	–
Cc1c(C)c2c(c(C)c1O)CCC(C)(C(=O)O)O2 (stereo not shown) [Trolox, 6-hydroxy-2,5,7,8-tetramethylchroman-2-carboxylic acid, reference compound]	–	–	–	19800 ± 800	1.00	1.00	–	–	–	–
O=C(O)c1ccccc1O [Salicylic acid, reference compound]	8.9 ± 0.6	–	–	–	no antiradical activity	0.02	47600 ± 3200	6.5 ± 1.2	–	–
Oc1ccccc1C=NCCCCNc1c2c(nc3ccccc13)CCCC2 [10a, 2-[4-(1,2,3,4-Tetrahydroacridin-9-ylamino)butyliminomethyl]phenol]	20.8 ± 0.4	18.6 ± 1.6	57.9 ± 4.6	35800 ± 1900	0.42 ± 0.03	0.02	127 ± 6	–	743 ± 44	–
O=C1O[C@H]([C@@H](O)CO)C(O)=C1O [Ascorbic acid, reference compound]	–	–	–	22600 ± 1200	0.96 ± 0.03	1.28 ± 0.11	–	–	–	–
O=C(NCCCCNc1c2c(nc3ccccc13)CCCC2)c1cc(F)c(F)cc1O [7a, 4,5-Difluoro-2-hydroxy-N-[4-(1,2,3,4-tetrahydroacridin-9-ylamino)butyl]benzamide]	4.3 ± 0.9	10.4 ± 0.9	17.4 ± 1.2	> 200000	0.06 and 0.060 ± 0.002	–	29.1 ± 2.2	–	500 ± 30	–
CC[N+](C)(CC)CCC[n+]1c(-c2ccccc2)c2cc(N)ccc2c2ccc(N)cc21.[I-].[I-] [Propidium iodide, reference compound]	–	–	–	–	–	–	–	–	–	90.7 ± 7.1
COc1ccccc1C(=O)NCCCCNc1c2c(nc3ccccc13)CCCC2 [6a]	3.4 ± 0.7	10.2 ± 0.9	12.3 ± 0.9	–	0.02 (n.a.)	0.03	10.5 ± 0.7	–	1920 ± 130	–
COc1cc(F)c(F)cc1C(=O)NCCCCNc1c2c(nc3ccccc13)CCCC2 [8a, 4,5-Difluoro-2-methoxy-N-[4-(1,2,3,4-tetrahydroacridin-9-ylamino)butyl]benzamide]	6.5 ± 1.1	13.2 ± 1.0	10.4 ± 0.9	–	–	0.03	54.7 ± 3.4	–	1220 ± 70	–
